How the values were obtained:
Test in all cases: relative viability (nuclei count vs DMSO), 5 days (fraction); higher = more cells survive
[1] = compound: CS(=O)(=O)CCNCc1ccc(-c2ccc3ncnc(Nc4ccc(OCc5cccc(F)c5)c(Cl)c4)c3c2)o1 [Lapatinib] + CS(=O)(=O)N1CCN(Cc2cc3nc(-c4cccc5[nH]ncc45)nc(N4CCOCC4)c3s2)CC1 [Pictilisib] (partner 1 µM)
Outline: (§1)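 After 5 days of treatment, lung cancer cells in 1536-well plates were fixed and stained in a single step (final 0.05% Triton X-100, 1% formaldehyde, 1 ug/ml Hoechst) and their nuclei counted on 4× images. Treatment had been applied by pin tool the day after seeding as one drug alone or as a fixed anchor-drug dose with five library-drug doses (not always all listed) in √10 steps. Relative viability is the nuclei count of treated wells divided by that of vehicle wells, and values are medians of duplicate plates.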

[2] = compound: CC1=NC=CC(=C1)C2=CC=C(C=C2)CC(=O)NC3=CC=C(C=C3)C4=CN=CC=C4 [Wnt-C59] + Nc1nc2[nH]cc(CCc3ccc(C(=O)N[C@@H](CCC(=O)O)C(=O)O)cc3)c2c(=O)[nH]1 [Pemetrexed] (partner 0.2 µM)
Outline: as §1

[3] = compound: CS(=O)(=O)CCNCc1ccc(-c2ccc3ncnc(Nc4ccc(OCc5cccc(F)c5)c(Cl)c4)c3c2)o1 [Lapatinib] + Nc1ncn([C@H]2C[C@H](O)[C@@H](CO)O2)c(=O)n1 [Decitabine] (partner 2 µM)
Outline: as §1

[4] = compound: CC1=NC=CC(=C1)C2=CC=C(C=C2)CC(=O)NC3=CC=C(C=C3)C4=CN=CC=C4 [Wnt-C59] + CC(C)C[C@H](NC(=O)[C@H](Cc1ccccc1)NC(=O)c1cnccn1)B(O)O [Bortezomib] (partner 0.002 µM)
Outline: as §1

Cell Line: UMC-11
- relative viability ([1]; first compound 0.02 µM): 0.251
- relative viability ([1]; first compound 0.06325 µM): 0.731
- relative viability ([1]; first compound 0.2 µM): 0.827
- relative viability ([1]; first compound 0.6325 µM): 0.839
- relative viability ([1]; first compound 2 µM): 0.759
- relative viability ([2]; first compound 0.001 µM): 0.756
- relative viability ([2]; first compound 0.01 µM): 0.821
- relative viability ([2]; first compound 0.03162 µM): 0.874
- relative viability ([2]; first compound 0.1 µM): 0.76
- relative viability ([3]; first compound 0.02 µM): 0.493
- relative viability ([3]; first compound 0.06325 µM): 0.541
- relative viability ([3]; first compound 0.2 µM): 0.627
- relative viability ([3]; first compound 0.6325 µM): 0.518
- relative viability ([3]; first compound 2 µM): 0.604
- relative viability ([4]; first compound 0.001 µM): 0.715
- relative viability ([4]; first compound 0.01 µM): 0.616
- relative viability ([4]; first compound 0.03162 µM): 0.75
- relative viability ([4]; first compound 0.1 µM): 0.728
